Laboratory results: ChEMBL document CHEMBL2321780, “Fluorinated quinazolinones as potential radiotracers for imaging kinesin spindle protein expression” (2013)
Calls of active or inactive are those of the source. No cut-off for these calls is given here.

Legend:
PC-3 [1] = assay: Cell cycle arrest in human PC3 cells assessed as accumulation in G0/G1 phase at 100 nM after 24 hrs by FACS analysis (reference value: 32.6%); type: functional
MCF7 [2] = assay: Cell cycle arrest in human MCF7 cells assessed as accumulation in G2/M phase at 100 nM after 24 hrs by FACS analysis (reference value: 22.4%); type: functional
DU-145 [3] = assay: Cell cycle arrest in human DU145 cells assessed as accumulation in G0/G1 phase at 100 nM after 24 hrs by FACS analysis (reference value: 53.2%); type: functional
PC-3 [4] = assay: Cell cycle arrest in human PC3 cells assessed as accumulation in S phase at 100 nM after 24 hrs by FACS analysis (reference value: 14.2%); type: functional
MCF7 [5] = assay: Cell cycle arrest in human MCF7 cells assessed as accumulation in S phase at 100 nM after 24 hrs by FACS analysis (reference value: 19.6%); type: functional
PC-3 [6] = assay: Cell cycle arrest in human PC3 cells assessed as accumulation in G2/M phase at 100 nM after 24 hrs by FACS analysis (reference value: 26.3%); type: functional
MCF7 [7] = assay: Cell cycle arrest in human MCF7 cells assessed as accumulation in G0/G1 phase at 100 nM after 24 hrs by FACS analysis (reference value: 48.2%); type: functional
SK-OV-3 [8] = assay: Cell cycle arrest in human SKOV3 cells assessed as accumulation in S phase at 100 nM after 24 hrs by FACS analysis (reference value: 18.4%); type: functional
DU-145 [9] = assay: Cell cycle arrest in human DU145 cells assessed as accumulation in G2/M phase at 100 nM after 24 hrs by FACS analysis (reference value: 31%); type: functional
SK-OV-3 [10] = assay: Cell cycle arrest in human SKOV3 cells assessed as accumulation in G0/G1 phase at 100 nM after 24 hrs by FACS analysis (reference value: 51.1%); type: functional
SK-OV-3 [11] = assay: Cell cycle arrest in human SKOV3 cells assessed as accumulation in G2/M phase at 100 nM after 24 hrs by FACS analysis (reference value: 21.8%); type: functional
DU-145 [12] = assay: Cell cycle arrest in human DU145 cells assessed as accumulation in S phase at 100 nM after 24 hrs by FACS analysis (reference value: 4.5%); type: functional
[13] = molecular target: T1, Kinesin-like protein KIF11 (Homo sapiens) (UniProt P52732); assay: Inhibition of KSP (unknown origin)-mediated ATP hydrolysis assessed as residual activity at 1 uM after 10 to 20 mins by spectrophotometric analysis
T1 sequence (whole entry): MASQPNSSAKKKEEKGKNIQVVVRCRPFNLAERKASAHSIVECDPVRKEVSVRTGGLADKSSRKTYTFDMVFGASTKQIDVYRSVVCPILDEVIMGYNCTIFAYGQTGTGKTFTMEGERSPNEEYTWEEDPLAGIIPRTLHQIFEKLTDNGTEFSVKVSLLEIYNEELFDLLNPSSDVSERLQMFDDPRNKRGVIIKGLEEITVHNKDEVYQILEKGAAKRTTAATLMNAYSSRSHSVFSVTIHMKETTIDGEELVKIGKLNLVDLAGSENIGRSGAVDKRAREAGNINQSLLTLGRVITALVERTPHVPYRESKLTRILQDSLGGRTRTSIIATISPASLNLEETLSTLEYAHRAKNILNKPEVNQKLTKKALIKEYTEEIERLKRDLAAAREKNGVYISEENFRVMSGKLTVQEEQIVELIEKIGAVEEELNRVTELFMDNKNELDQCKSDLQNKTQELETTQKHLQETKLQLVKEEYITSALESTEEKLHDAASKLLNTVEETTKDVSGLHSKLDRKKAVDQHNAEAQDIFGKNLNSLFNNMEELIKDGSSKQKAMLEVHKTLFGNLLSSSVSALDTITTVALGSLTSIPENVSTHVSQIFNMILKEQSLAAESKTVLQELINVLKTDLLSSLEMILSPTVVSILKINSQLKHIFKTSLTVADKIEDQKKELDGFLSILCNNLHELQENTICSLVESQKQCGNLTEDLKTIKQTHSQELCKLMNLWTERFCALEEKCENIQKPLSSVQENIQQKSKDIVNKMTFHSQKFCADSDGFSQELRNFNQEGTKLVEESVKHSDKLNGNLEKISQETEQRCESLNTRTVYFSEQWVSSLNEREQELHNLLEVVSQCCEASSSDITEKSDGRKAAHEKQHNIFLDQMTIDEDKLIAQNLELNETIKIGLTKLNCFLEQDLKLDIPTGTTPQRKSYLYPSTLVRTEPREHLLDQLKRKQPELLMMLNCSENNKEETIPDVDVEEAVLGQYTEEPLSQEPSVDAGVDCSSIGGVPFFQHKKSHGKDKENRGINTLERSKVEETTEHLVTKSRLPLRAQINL

PC-3 [14] = assay: Cytotoxicity against human PC3 cells assessed as inhibition of KSP-mediated cell cycle progression after 44 hrs by MTT assay; type: functional; conditions: PC-3, 44 h
DU-145 [15] = assay: Cytotoxicity against human DU145 cells assessed as inhibition of KSP-mediated cell cycle progression after 44 hrs by MTT assay; type: functional; conditions: DU-145, 44 h
SK-OV-3 [16] = assay: Cytotoxicity against human SKOV3 cells assessed as inhibition of KSP-mediated cell cycle progression after 44 hrs by MTT assay; type: functional; conditions: SK-OV-3, 44 h
SK-OV-3 [17] = assay: Cell cycle arrest in human SKOV3 cells assessed as monoaster phenotype at 100 nM after 22 hrs by confocal microscopic analysis; type: functional, cell-based
MCF7 [18] = assay: Cytotoxicity against human MCF7 cells assessed as inhibition of KSP-mediated cell cycle progression after 44 hrs by MTT assay; type: functional; conditions: MCF7, 44 h
SK-OV-3 [19] = assay: Cell cycle arrest in human SKOV3 cells assessed as phospho-histone3 level at 100 nM after 24 hrs by immunostaining analysis; type: functional
SK-OV-3 [20] = assay: Cell cycle arrest in human SKOV3 cells assessed as monoaster phenotype at 100 nM after 24 hrs by confocal microscopic analysis; type: functional, cell-based
SK-OV-3 [21] = assay: Cell cycle arrest in human SKOV3 cells assessed as absence of normal mitotic stages at 100 nM after 24 hrs by confocal microscopic analysis; type: functional, cell-based
SK-OV-3 [22] = assay: Nonspecific cytotoxicity against human SKOV3 cells after 44 hrs by BrdU incorporation assay; type: functional; conditions: SK-OV-3, 44 h
SK-OV-3 [23] = assay: Cytotoxicity against human SKOV3 cells assessed as inhibition of KSP-mediated cell cycle progression after 44 hrs by BrdU incorporation assay; type: functional; conditions: SK-OV-3, 44 h

Cc1ccc(C(=O)N(CCCN)[C@@H](c2nc3cc(Cl)ccc3c(=O)n2Cc2ccccc2)C(C)C)cc1 [ISPINESIB]
Activity (PC-3 [1]): 13.8% | Activity (MCF7 [2]): 57.2% | Activity (DU-145 [3]): 24.8% | Activity (PC-3 [4]): 10.1% | Activity (MCF7 [5]): 10.6% | Activity (PC-3 [6]): 60.9% | Activity (MCF7 [7]): 22.1% | Activity (SK-OV-3 [8]): 13.6% | Activity (DU-145 [9]): 49.8% | Activity (SK-OV-3 [10]): 3.8% | Activity (SK-OV-3 [11]): 51.3% | Activity (DU-145 [12]): 10.8% | Activity [13]: 8.8%

CC(C)[C@H](c1nc2cc(Cl)ccc2c(=O)n1Cc1ccccc1)N(CCCN)C(=O)c1ccccc1F
GI50 (PC-3 [14]): 7.8 nM | GI50 (DU-145 [15]): 10.7 nM | GI50 (SK-OV-3 [16]): 34.8 nM | Activity (SK-OV-3 [17]): Active | GI50 (MCF7 [18]): 4.2 nM | Activity [13]: 7.5%

CC(C)C(c1nc2cc(Cl)ccc2c(=O)n1Cc1ccccc1)N(CCCN)C(=O)c1cccc(F)c1 (racemic)
GI50 (PC-3 [14]): 17 nM | GI50 (DU-145 [15]): 4 nM | GI50 (SK-OV-3 [16]): 15.6 nM | GI50 (MCF7 [18]): 5.1 nM | Activity [13]: 10.1%

CC(C)[C@@H](c1nc2cc(Cl)ccc2c(=O)n1Cc1ccccc1)N(CCCN)C(=O)c1ccc(F)cc1
Activity (PC-3 [1]): 31% | Activity (MCF7 [2]): 22.8% | Activity (DU-145 [3]): 52.9% | Activity (PC-3 [4]): 24.2% | Activity (MCF7 [5]): 15.2% | Activity (PC-3 [6]): 32.9% | Activity (MCF7 [7]): 51.3% | Activity (SK-OV-3 [8]): 16.2% | Activity (DU-145 [9]): 27.7% | Activity (SK-OV-3 [10]): 51.9% | Activity (SK-OV-3 [11]): 22.5% | Activity (SK-OV-3 [19]): 2.6% | Activity (DU-145 [12]): 9.5% | Activity [13]: 96.1%

CC(C)[C@H](c1nc2cc(Cl)ccc2c(=O)n1Cc1ccccc1)N(CCCN)C(=O)c1ccc(F)cc1
Activity (SK-OV-3 [20]): Active | Activity (PC-3 [1]): 12% | Activity (SK-OV-3 [21]): Active | Activity (MCF7 [2]): 53.2% | GI50 (PC-3 [14]): 0.5 nM | Activity (PC-3 [4]): 11.1% | Activity (MCF7 [5]): 12% | Activity (PC-3 [6]): 63.6% | GI50 (DU-145 [15]): 0.19 nM | Activity (MCF7 [7]): 25.1% | Activity (SK-OV-3 [8]): 13.8% | Activity (SK-OV-3 [10]): 3.5% | GI50 (SK-OV-3 [22]): 61000 nM | Activity (SK-OV-3 [11]): 58.5% | Activity (SK-OV-3 [19]): 58.8% | GI50 (SK-OV-3 [23]): 0.01 nM | Activity (SK-OV-3 [17]): Active | GI50 (MCF7 [18]): 1 nM | Activity [13]: 2.7%

CC(C)[C@@H](c1nc2cc(Cl)ccc2c(=O)n1Cc1ccccc1)N(CCCN)C(=O)c1ccccc1F
Activity [13]: 95.9%

Cc1ccc(C(=O)N(CCCN)[C@H](c2nc3cc(Cl)ccc3c(=O)n2Cc2ccccc2)C(C)C)cc1
Activity (PC-3 [1]): 34.4% | Activity (MCF7 [2]): 21.2% | Activity (DU-145 [3]): 53.7% | Activity (PC-3 [4]): 30% | Activity (MCF7 [5]): 17.6% | Activity (PC-3 [6]): 25% | Activity (MCF7 [7]): 49.7% | Activity (SK-OV-3 [8]): 16.6% | Activity (DU-145 [9]): 24.5% | Activity (SK-OV-3 [10]): 49.8% | Activity (SK-OV-3 [11]): 14.5% | Activity (DU-145 [12]): 10.3% | Activity [13]: 99.4%

CC(C)[C@@H](c1nc2cc(Cl)ccc2c(=O)n1Cc1ccccc1)N(CCCN)C(=O)c1cccc(F)c1
Activity [13]: 95.5%
